Measurements reported in US9067968B2, “Tight junction protein modulators and uses thereof” (The Regents of the University of Colorado, a body corporate, priority 2007, dated 2015).
Bridges are numbered along the chain shown (N, C = ends). Where no end group is shown, it is not given here.

Columns and labels:
EPH4 cells [1] = experiment: Calcium switch: recovery of transepithelial resistance; format: cell-based, mouse; details: peptide 350 μM, removed after 24 hours
Description: To confirm that the LYHY (SEQ ID NO:1) and DFYNP (SEQ ID NO:2) peptides disrupted tight junction properties, a “calcium switch” experiment was performed. The removal of extracellular Ca^+2 and Mg^+2 abolished TER and disrupts intercellular junctions when applied to various epithelia, causing an intracellular redistribution of various cell adhesion proteins, including occludin, away from the apical junction complex. Several epithelial cell lines reorganized the apical junction complex and recovered TER following the replenishment of normal Ca^+2 and Mg^+2 containing medium. The calcium switch was performed on filter-grown EPH4 cells that had achieved a TER of 1000 Ohms·cm^2. After 15 minutes in Ca^+2 and Mg^+2 depleted-medium, TER was reduced to baseline resistance. Cells were then switched back to normal medium containing the occludin peptide, the claudin peptide or the control peptide at a concentration of 350 μM. The control peptide (LYQY (SEQ ID NO:3)) had one amino acid substitution of the occludin peptide and was also circularized with cysteines at each terminus. Peptides were removed after 24 hours. […] TER was measured at 12 and 24 hours following peptide application. Peptides were washed away 24 hours following application and TER was measured every 24 hours thereafter. […]

occludin = experiment: Occludin distribution by immunofluorescence after peptide treatment; format: cell-based, mouse; details: mature EPH4 monolayers, 8 hours at 350 μM
Description: To establish the effect of LYHY (SEQ ID NO:1) and DFYNP (SEQ ID NO:2) peptide treatment upon the distribution of endogenous occludin, EPH4 cells were treated with the peptides for 8 hours. The effect of peptides on occludin distribution in mature EPH4 cell monolayers is shown on FIG. 3B, where cell cultures grown on glass slides were treated with LYHY (SEQ ID NO:1), DFYNP (SEQ ID NO:2) or control LYQY (SEQ ID NO:3) peptide for 8 hours at 350 μM. Cells were then stained for occludin. […] Occludin was not as brightly stained at the tight junction in these cells and appeared in intracellular regions outside the tight junction.

EPH4 cells [2] = experiment: TUNEL staining of peptide-treated EPH4 cells; format: cell-based, mouse; details: for rate of apoptosis: peptide treatment of mature monolayers
Description: (§1) TUNEL staining was performed using the Roche In Situ Cell Death Detection Kit, TMR red. Cells were fixed in 2% paraformaldehyde and permeabilized in 1% sodium citrate (trisodium salt) containing 0.1% TX-100. Staining was performed as per manufacturers instructions.
(§2) Having established that LYHY (SEQ ID NO:1) and DFYNP (SEQ ID NO:3) peptides impeded recovery of TER following the calcium switch and changed the normal distribution of occludin, the effects of disruption of occludin function on apoptosis was examined. EPH4 mouse mammary epithelial cells and MDCK canine kidney epithelial cells were treated with LYHY (SEQ ID NO:1) peptide for various times and then TUNEL stained.
(§3) FIGS. 4A and 4B show the effects of the LYHY (SEQ ID NO:1) peptide on TUNEL reactivity and TER. In particular, FIG. 4A is a graph showing the number of TUNEL stained EPH4 and MDCK cells that were grown on glass slides and treated with LYHY (SEQ ID NO:1) or control peptide for 6 or 12 hours. FIG. 4B is a graph of TER that was recorded at 0, 24, […], and 72 hours post peptide treatment of EPH4 cells that were grown on filters until the TER reached 1000 (Ohms·cm^2), then treated with solvent, LYHY (SEQ ID NO:1), or control peptides. Peptides were diluted to 350 μM in normal growth medium and placed in the top and bottom chambers. TER was recorded at 0, 24, 48, and 72 hours post peptide treatment. Peptides were replenished daily, after recordings.

EPH4 cells [3] = experiment: TER of intact high resistance monolayers during peptide treatment; format: cell-based, mouse; details: 350 μM, 3 days of peptide treatment, replenished daily
Description: as §3
Similarly, treatment of EPH4 cells with a larger occludin mimic peptide caused a change in occludin distribution while treated cells maintained the majority of control TER.

MDCK cells = experiment: TUNEL staining of peptide-treated MDCK cells; format: cell-based, canine; details: 6 or 12 hours
Description: as §1, §2
as §3, with “Peptides were replenished daily, after recordings.” left out

[4] = test system: activated caspase-8 and activated caspase-3; experiment: Activated caspase stains in live peptide-treated cells; format: cell-based, mouse; details: EPH4 cells, 2 h post peptide treatment, 350 μM
Description: Cells were stained with Image-iT®LIVE Green Caspase-8 Detection Kit, Molecular Probes and/or Image-iT®LIVE Red Caspase-3 and -7 Detection Kit, Molecular Probes. Stains were both diluted into differentiation media that contained LYHY (SEQ ID NO:1) or LYQY (SEQ ID NO:3). Cells were stained in the incubator 1 hour, rinsed in […] differentiation media, and processed for immunofluorescence.
Possible mechanism linking occludin disruption to a known means of initiation of apoptosis was then explored using the LYHY (SEQ ID NO:1) peptide. It is believed that the loss of cellular adhesion results in the activation of the death receptor pathway and specify caspase-8 as the initiator caspase in apoptosis occurring due to loss of either cadherin or integrin function. To observe potential activation of the caspase-8 cascade, live EPH4 cells that had been treated with LYHY (SEQ ID NO:1) or control peptide were stained with cell permeable, fluorescent probes that irreversibly bind the proteolytic sites of activated caspase-8 (carboxyfluoresceine-LETD-fmk) and activated caspase-3 (sulphorhodamine-DEVD-fmk). […] Areas showing caspase-3 activation overlapped with areas showing caspase-8 activation, while caspase-8 activation was more widespread and sometimes occurred alone. […]

“Cyclic H-CLYQYC-OH (flanking Cys, cyclised; Control Peptide Fig. 3A) [control peptide with one amino acid substitution of the occludin peptide, circularized with cysteines at each terminus]” was tested, and the “TER reached after the calcium switch” value (EPH4 cells [1]; after about 6 days / several days following peptide removal) was 4000 Ohms·cm^2, the “time to recover initial TER following the calcium switch” value (EPH4 cells [1]; initial TER 1000 Ohms·cm^2) was ≤ 48 h and the “distribution of endogenous occludin” value (occludin) was “Only an occasional cell showing non-tight junctional distribution of occludin”.
“H-CDFYNPC (disulfide 1-7; not fully specified) [peptide derived from the second extracellular loop of several claudins, cyclized via flanking cysteines]” was tested, and the rate of apoptosis (EPH4 cells [2]) was “increase the rate of apoptosis”, the “distribution of endogenous occludin” value (occludin) was “islands of cells with irregular occludin distribution” and the “effect on TER of intact monolayers” value (EPH4 cells [3]) was “did not significantly reduce TER”.
“cyclic H-CLYHYC-OH (flanking Cys, cyclised; TJ Protein Modulator 1) [Occludin second extracellular loop peptide, cyclized via flanking cysteines]” was tested, and the TUNEL staining (MDCK cells) was “increased TUNEL staining”, the TUNEL staining (EPH4 cells [2]; EPH4 cells, 6 or 12 hours) was “increased TUNEL staining” and the rate of apoptosis (EPH4 cells [2]) was “increase the rate of apoptosis”. The “distribution of endogenous occludin” value (occludin) was “islands of cells with irregular occludin distribution”, the “staining for activated caspases (caspase-8, caspase-3)” value [4] was “increased staining for activated caspases relative to controls” and the “effect on TER of intact monolayers” value (EPH4 cells [3]) was “did not significantly reduce TER”.
